Source: US8586533B2, “Treatment of early-stage osteoarthritis” (Kaohsiung Medical University, priority 2008, dated 2013)

Legend:
[1] = system: human articular chondrocytes; experiment: Dimethylmethylene blue (DMMB) assay of GAG levels in chondrocyte cultures; format: cell-based; conditions: for GAG levels versus control group: 10 nM
Description: (§1) Chondrocyte cultures were divided into 4 groups.
Alginate beads were dissolved as described above and further digested by papain (300 μg/ml) at 60° C. for 18 hours. The levels of DNA and sulfated glycosaminoglycan (GAG) in the samples were quantified using Hoechst 33258 dye and 1,9-dimethylmethylene blue dye, respectively. A standard curve for the DMMB assay was generated using aqueous chondroitin sulfate C solution (Sigma-Aldrich, St. Louis, Mo.) at concentrations ranging from […].

rat articular cartilage = experiment: Papain-induced OA rat model, TUNEL staining of tibia articular sections; format: in vivo, Sprague-Dawley rats; conditions: OA plus PTH group, 10 nM intraarticular
Description: Fifty-four 12-week-old male Sprague-Dawley rats (250-300 gm) were purchased from BioLASCO Taiwan and housed under standard laboratory conditions (temperature 24° C., 12-hour light-dark cycle) with food and water ad libitum. The animals were acclimatized to the laboratory environment for 1 week before the experiments.
Rats were divided into the following 3 groups: OA (OA induction without PTH [1-34] treatment) (n=18), OA plus PTH (PTH [1-34] treatment followed by OA induction) (n=18), and PTH (PTH [1-34] treatment without OA induction) (n=18). Each left knee, which served as the contralateral control joint, was injected with vehicle without PTH treatment or OA induction. The right knees were the study joints. OA was induced in the right knees of rats in the OA and OA plus PTH groups with intraarticular injections of 20 μl of 4% papain solution and 20 μl of 0.03M cysteine. The injections were given with a 26-gauge needle via the patellar tendon on days 1, 4, and 7 of the experiment (see e.g., Nucl Med Commun (1996) 17(6): 529-35). […]
Apoptotic cells in each section were measured by TUNEL staining using the In Situ Cell Death Detection Kit, TMR red. […] DAPI-stained cells (mean±SEM 150±40) were counted in the center area of the cartilage in tibia plateaus. […]

[2] = system: human articular chondrocytes; experiment: TUNEL staining, rate of apoptosis in chondrocyte cultures; format: cell-based; conditions: azaC plus PTH cultures, 10 nM, 14 days of treatment, P<0.01
Description: as §1
We measured apoptotic cells using the TUNEL (terminal deoxy-nucleotidyl transferase mediated dUTP nick end labeling) staining method using the In Situ Cell Death Detection Kit, TMR red (Roche, Mannheim, Germany). Following the manufacturer's guidelines, cells were fixed with 4% paraformaldehyde in phosphate buffered saline (PBS) at a cell density of 1×10^6/ml and incubated at room temperature for 10 minutes, and then settled on a slide by centrifugation at a speed of 2,000 rpm for 5 minutes using a cytospin (Cytospin 3; Shandon, Cheshire, UK). Slides were rinsed twice with PBS, and the cells were permeabilized by incubating in permeabilization solution (0.1% Triton X-100 in 0.1% sodium citrate) for 2 minutes on ice. The TUNEL reaction mixture containing terminal deoxynucleotidyl transferase and rhodamine (the labeling dye) was added to the slides and incubated at 37° C. in a humidified chamber in the dark for 60 minutes. The reaction was stopped by a blocking buffer (0.1% Triton X-100/0.5% bovine serum albumin in PBS). Cells were counterstained by 4′,6-diamidino-2-phenylindole (DAPI). The slides were observed under a fluorescence microscope with an excitation wavelength of 580 nm for rhodamine and 365 nm for DAPI. Cell nuclei were stained blue by DAPI, and only apoptotic cells were stained red by rhodamine. Stained cells were counted in 5 microscopic fields (1.566 mm^2/field) on each slide. Data were analyzed using Image-Pro Plus analysis software (Media Cybernetics, Silver Spring, Md.). The rate of apoptosis in chondrocytes was defined as the ratio of red-stained cells (apoptotic cells) to blue-stained cells (total cells).
By using TUNEL staining, the rate of apoptosis in human articular chondrocyte cultures in the control, azaC, and azaC plus PTH groups were compared after 14 days of PTH(1-34) treatment (for the azaC plus PTH group).

For “PTH (1-34): 34-amino acid long peptide made up of amino-terminal amino acids 1 through 34 of human parathyroid hormone”, the “GAG levels versus control group” value ([1]; PTH group (no azaC)) was “not significantly different”, the “GAG levels versus azaC group” value ([1]; azaC plus PTH group, 10 nM, 3, 7, and 10 days, P<0.01) was “significantly higher” and the “GAG levels versus control group” value ([1]; azaC plus PTH group, after 7 and 10 days, P<0.01) was “higher”. For the same substance, the “rate of apoptosis of chondrocytes in study cartilage versus contralateral control cartilage” value (rat articular cartilage) was “no significant difference”, the “rate of apoptosis of chondrocytes in study cartilage versus OA group” value (rat articular cartilage; P<0.01) was “significantly lower” and the “rate of apoptosis versus azaC cultures” value [2] was “significantly lower”. The “rate of apoptosis versus control cultures” value [2] was 3.1 fold increase.
